Assay [1] relates to serotonin contracted rat aortae. It is filed as cell-based. The source says: (§1) Under the conditions described above, conversion of non-iodinated ANF peptide fragment to the iodinated peptide was approximately 48%, based on the absorbance of the respective HPLC fractions and by amino acid analysis.
In assay [2] the test system is serotonin contracted rabbit aortae. It is filed as cell-based.
Source text: as §1

One may read the IC50 as the concentration that inhibits the measured activity by half. A higher IC50 goes with a need for much substance. On to `CC[C@H](C)[C@@H]1NC(=O)[C@H](CCCNC(=N)N)NC(=O)[C@H](CC(=O)O)NC(=O)[C@H]([C@@H](C)CC)NC(=O)[C@H](CCCNC(=N)N)NC(=O)CNC(=O)CNC(=O)[C@H](Cc2ccccc2)NC(=O)[C@@H](NC(=O)[C@H](CO)NC(=O)[C@H](CO)NC(=O)[C@H](CCCNC(=N)N)NC(=O)[C@@H](N)CCCNC(=N)N)CSSC[C@@H](C(=O)N[C@@H](CC(N)=O)C(=O)N[C@@H](CO)C(=O)N[C@@H](Cc2ccccc2)C(=O)N[C@@H](CCCNC(=N)N)C(=O)N[C@@H](Cc2ccc(O)c(I)c2)C(=O)O)NC(=O)CNC(=O)[C@H](CC(C)C)NC(=O)CNC(=O)[C@H](CO)NC(=O)[C@H](CCC(N)=O)NC(=O)[C@H](C)NC(=O)CNC1=O` [iodinated ANF peptide fragment], for which the IC50 turned out to be 1.05 nM in assay [1] and 1.65 nM in assay [2]. In addition, the extent of vasorelaxation entry in assay [1] (serotonin contracted rat aortae) and in assay [2] (serotonin contracted rabbit aortae) was “complete vasorelaxation” in each case.

Values taken from patent US4609725A, “Cardiac atrial peptides” (Merck & Co., Inc., priority 1984, dated 1986).
